Data taken from US7635716B2, “Substituted cyclopentanes or cyclopentanones as therapeutic agents” (Allergan, Inc., priority 2005, dated 2009).
Like-named read-outs stand apart in the source and are kept apart here.

Key:
hEP4/Gqs5 = molecular target: T1, hEP4/Gqs5 (Homo sapiens, UniProt P35408); test: FLIPR calcium signal, HEK-293(EBNA) cells; format: cell-based
T1 construct: expressed in transfected cells; host or cells: HEK-293(EBNA) cells
Experimental: (§1) HEK-293(EBNA) cells, stably expressing one type or subtype of recombinant human prostaglandin receptors (prostaglandin receptors expressed: hDP/Gqs5; hEP1; hEP2/Gqs5; hEP3A/Gqi5; hEP4/Gqs5; hFP; hIP; hTP), were cultured in 100 mm culture dishes in high-glucose DMEM medium containing 10% fetal bovine serum, 2 mM 1-glutamine, 250 μg/ml geneticin (G418) and 200 μg/ml hygromycin B as selection markers, and 100 units/ml penicillin G, 100 μg/ml streptomycin and 0.25 μg/ml amphotericin B.
(§2) Cells were seeded at a density of 5×10^4 cells per well in Biocoat® Poly-D-lysine-coated black-wall, clear-bottom 96-well plates (Becton-Dickinson) and allowed to attach overnight in an incubator at 37° C. Cells were then washed two times with HBSS-HEPES buffer (Hanks Balanced Salt Solution without bicarbonate and phenol red, 20 mM HEPES, pH 7.4) using a Denley Cellwash plate washer (Labsystems). After 45 minutes of dye-loading in the dark, using the calcium-sensitive dye Fluo-4 AM at a final concentration of 2 μM, plates were washed four times with HBSS-HEPES buffer to remove excess dye leaving 100 μl in each well. Plates were re-equilibrated to 37° C. for a few minutes.
(§3) Cells were excited with an Argon laser at 488 nm, and emission was measured through a 510-570 nm bandwidth emission filter (FLIPR™, Molecular Devices, Sunnyvale, Calif.). Drug solution was added in a 50 μl volume to each well to give the desired final concentration. The peak increase in fluorescence intensity was recorded for each well. On each plate, four wells each served as negative (HBSS-HEPES buffer) and positive controls (standard agonists: BW245C (hDP); PGE2 (hEP1; hEP2/Gqs5; hEP3A/Gqi5; hEP4/Gqs5); PGF2. (hFP); carbacyclin (hIP); U-46619 (hTP), depending on receptor). The peak fluorescence change in each drug-containing well was then expressed relative to the controls.
(§4) Compounds were tested in a high-throughput (HTS) or concentration-response (CoRe) format. In the HTS format, forty-four compounds per plate were examined in duplicates at a concentration of 10^−5 M. To generate concentration-response curves, four compounds per plate were tested in duplicates in a concentration range between 10^−5 and 10^−11 M. The duplicate values were averaged. In either, HTS or CoRe format each compound was tested on at least 3 separate plates using cells from different passages to give an n≧3.

hEP2/Gqs5 = molecular target: T2, hEP2/Gqs5 (Homo sapiens, UniProt P43116); test: FLIPR calcium signal, HEK-293(EBNA) cells; format: cell-based
T2 construct: expressed in transfected cells; host or cells: HEK-293(EBNA) cells
T2 sequence (P43116 whole entry): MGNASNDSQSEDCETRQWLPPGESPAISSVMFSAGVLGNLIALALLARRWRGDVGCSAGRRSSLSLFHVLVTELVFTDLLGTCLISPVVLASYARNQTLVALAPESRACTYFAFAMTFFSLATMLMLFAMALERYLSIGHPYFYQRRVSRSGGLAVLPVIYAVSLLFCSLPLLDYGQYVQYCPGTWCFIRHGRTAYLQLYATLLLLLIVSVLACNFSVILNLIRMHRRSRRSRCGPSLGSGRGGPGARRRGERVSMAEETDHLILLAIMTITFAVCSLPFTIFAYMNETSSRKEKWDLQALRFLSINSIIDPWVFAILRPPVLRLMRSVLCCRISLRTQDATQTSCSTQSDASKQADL
Experimental: as §1, §2, §3, §4

hDP/Gqs5 = molecular target: T3, hDP/Gqs5 (Homo sapiens, UniProt Q13258); test: FLIPR calcium signal, HEK-293(EBNA) cells; format: cell-based
T3 construct: expressed in transfected cells; host or cells: HEK-293(EBNA) cells
T3 sequence (Q13258 1-359): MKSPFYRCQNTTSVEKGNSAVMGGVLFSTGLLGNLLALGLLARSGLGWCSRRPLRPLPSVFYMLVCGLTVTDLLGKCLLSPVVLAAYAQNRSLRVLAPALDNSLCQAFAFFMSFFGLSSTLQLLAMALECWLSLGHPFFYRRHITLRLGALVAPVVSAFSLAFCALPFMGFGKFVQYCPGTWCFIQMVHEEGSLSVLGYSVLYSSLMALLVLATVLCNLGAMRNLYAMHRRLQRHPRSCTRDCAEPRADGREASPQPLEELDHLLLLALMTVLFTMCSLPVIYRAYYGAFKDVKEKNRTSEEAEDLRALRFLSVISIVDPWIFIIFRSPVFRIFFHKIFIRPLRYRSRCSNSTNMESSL
Experimental: as §1, §2, §3, §4

hEP3A/Gqi5 = molecular target: T4, hEP3A/Gqi5 (Homo sapiens, UniProt P43115); test: FLIPR calcium signal, HEK-293(EBNA) cells; format: cell-based
T4 construct: expressed in transfected cells; host or cells: HEK-293(EBNA) cells
T4 sequence (P43115 1-390): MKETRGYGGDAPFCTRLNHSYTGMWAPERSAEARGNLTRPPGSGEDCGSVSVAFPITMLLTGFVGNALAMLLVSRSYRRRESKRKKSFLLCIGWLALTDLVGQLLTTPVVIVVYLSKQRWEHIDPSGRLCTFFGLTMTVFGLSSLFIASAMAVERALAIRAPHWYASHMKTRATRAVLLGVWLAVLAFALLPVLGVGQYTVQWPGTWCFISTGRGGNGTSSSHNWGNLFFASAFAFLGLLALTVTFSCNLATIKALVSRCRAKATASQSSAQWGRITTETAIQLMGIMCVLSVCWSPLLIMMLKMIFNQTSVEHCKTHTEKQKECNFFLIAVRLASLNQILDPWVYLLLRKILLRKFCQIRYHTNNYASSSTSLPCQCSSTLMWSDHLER
Experimental: as §1, §2, §3, §4

hEP1 = molecular target: T5, hEP1 (Homo sapiens, UniProt P34995); test: FLIPR calcium signal, HEK-293(EBNA) cells; format: cell-based
T5 construct: expressed in transfected cells; host or cells: HEK-293(EBNA) cells
T5 sequence (P34995 1-402): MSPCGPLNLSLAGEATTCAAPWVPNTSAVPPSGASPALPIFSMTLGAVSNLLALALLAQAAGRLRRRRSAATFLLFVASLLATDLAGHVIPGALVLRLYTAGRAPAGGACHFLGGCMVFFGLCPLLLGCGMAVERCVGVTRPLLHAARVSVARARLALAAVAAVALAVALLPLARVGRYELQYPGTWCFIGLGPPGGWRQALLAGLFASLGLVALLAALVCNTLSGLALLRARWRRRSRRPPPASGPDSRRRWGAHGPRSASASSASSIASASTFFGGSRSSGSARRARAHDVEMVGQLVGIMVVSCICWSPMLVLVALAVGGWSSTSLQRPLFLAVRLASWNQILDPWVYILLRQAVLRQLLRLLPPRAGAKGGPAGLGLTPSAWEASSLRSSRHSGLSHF
Experimental: as §1, §2, §3, §4

normotensive dogs [1] = test: Ocular surface hyperemia (OSH) in normotensive dogs; format: in vivo, dog; set-up: maximum OSH score: scale not given here; conditions: 0.1%, dosing once daily for 5 days
Experimental: (§5) (Z)-7-[(1R,2S,3R,5R)-5-Chloro-2-(3,5-dichloro-phenoxymethyl)-3-hydroxy-cyclopentyl]-hept-5-enoic acid (15b) was tested at multiple concentrations in normotensive dogs, dosing once daily for 5 days. At 0.05%, the maximum IOP decrease from baseline was 4.3 mmHg (30%) at 6 h; the maximum OSH score was 0.6 at 6 h. […] This compound was also tested in laser-induced hypertensive monkeys, using one single day dose. At 0.1%, the maximum IOP decrease from baseline was 6 mmHg (19%) at 6 h.
(§6) (Z)-7-[(1R,2S,3R,5R)-5-Chloro-2-(3,5-dichloro-phenoxymethyl)-3-hydroxy-cyclopentyl]-hept-5-enoic acid isopropyl ester (42b) was tested in normotensive dogs at 0.05%, dosing once daily for 5 days. The maximum intraocular pressure (IOP) decrease from baseline was 3 mmHg (19%) at 6 h; the maximum ocular surface hyperemia (OSH) score was 0.6 at 74 h. This compound was also tested in laser-induced hypertensive monkeys, using one single day dose. At 0.01%, the maximum IOP decrease from baseline was 6 mmHg (16%) at 6 h.

normotensive dogs [2] = test: Intraocular pressure (IOP) in normotensive dogs; format: in vivo, dog; conditions: Canis lupus familiaris, topical, 120 h, 0.1%, dosing once daily for 5 days, read-out: maximum IOP decrease from baseline (percent)
Experimental: as §5, §6

[3] = test system: laser-induced hypertensive monkeys; test: Intraocular pressure (IOP) in laser-induced hypertensive monkeys; format: in vivo, monkey; conditions: Primates, topical, 0.1%, one single day dose, read-out: maximum IOP decrease from baseline (percent)
Experimental: as §5, §6

[4] = Table 1, first part, triplicate, read-out: functional data (EC50) hEP4
[5] = Table 1, second part, read-out: hEP4 flipr EC50
[6] = Table 1, first part, triplicate, read-out: functional data (EC50) hEP2
[7] = Table 1, second part, read-out: hEP2 flipr EC50
[8] = Table 1, second part, quantity not given, values match functional data (EC50) of first part, read-out: Other Receptors hEP3

T1 sequence (P35408 whole entry): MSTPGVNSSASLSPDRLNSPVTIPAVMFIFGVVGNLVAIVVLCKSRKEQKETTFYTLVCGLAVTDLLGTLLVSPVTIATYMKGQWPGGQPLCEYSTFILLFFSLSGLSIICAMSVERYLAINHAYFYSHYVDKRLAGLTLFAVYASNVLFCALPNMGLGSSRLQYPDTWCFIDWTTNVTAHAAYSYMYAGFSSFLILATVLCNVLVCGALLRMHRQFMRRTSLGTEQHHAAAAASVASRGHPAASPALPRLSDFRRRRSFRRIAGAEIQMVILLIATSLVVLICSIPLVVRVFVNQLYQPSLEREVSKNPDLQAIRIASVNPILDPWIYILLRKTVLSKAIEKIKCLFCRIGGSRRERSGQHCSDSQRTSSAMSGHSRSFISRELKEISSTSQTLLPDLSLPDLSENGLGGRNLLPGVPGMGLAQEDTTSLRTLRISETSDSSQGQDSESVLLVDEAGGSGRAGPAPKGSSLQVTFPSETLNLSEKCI

| Compound | EC50 (hEP4/Gqs5; [4]) | EC50 (hEP4/Gqs5; [5]) | EC50 (hEP2/Gqs5; [6]) | EC50 (hEP2/Gqs5; [7]) | maximum OSH score (normotensive dogs [1]) | time of maximum OSH score (normotensive dogs [1]) | inhibition in vivo at 0.1 % (normotensive dogs [2]) | inhibition in vivo at 0.1 % [3] | other results |
| --- | --- | --- | --- | --- | --- | --- | --- | --- | --- |
| COC(=O)CCC/C=C\C[C@H]1C(=O)C=C[C@@H]1COc1ccccc1 [Example 1, (Z)-7-((1R,5S)-2-Oxo-5-phenoxymethyl-cyclopent-3-enyl)-hept-5-enoic acid methyl ester] | > 10 µM | > 10 µM | > 10 µM | > 10 µM |  |  |  |  |  |
| COC(=O)CCC/C=C\C[C@H]1C(=O)C[C@@H](O)[C@@H]1COc1ccccc1 [Example 2, (Z)-7-((1R,2S,3R)-3-Hydroxy-5-oxo-2-phenoxymethyl-cyclopentyl)-hept-5-enoic acid methyl ester] | > 10 µM | > 10 µM |  |  |  |  |  |  |  |
| COC(=O)CCCCCC[C@H]1C(=O)CC[C@@H]1COc1ccccc1 [Example 5, 7-((1R,5S)-2-Oxo-5-phenoxymethyl-cyclopentyl)-heptanoic acid methyl ester] | > 10 µM | > 10 µM | > 10 µM | > 10 µM |  |  |  |  |  |
| COC(=O)CCC/C=C\C[C@@H]1[C@@H](COc2ccccc2)[C@H](O)C[C@H]1Cl [Example 7, (Z)-7-((1R,2S,3R,5R)-5-Chloro-3-hydroxy-2-phenoxymethyl-cyclopentyl)-hept-5-enoic acid methyl ester] | > 10 µM | > 10 µM | > 10 µM | > 10 µM |  |  |  |  |  |
| COC(=O)CCCCCC[C@@H]1[C@@H](COc2ccccc2)[C@H](O)C[C@H]1Cl [Example 9, 7-((1R,2S,3R,5R)-5-Chloro-3-hydroxy-2-phenoxymethyl-cyclopentyl)-heptanoic acid methyl ester] | 3.71 µM |  | > 10 µM | > 10 µM |  |  |  |  |  |
| COC(=O)CCCCCC[C@@H]1[C@@H](COc2cc(Cl)cc(Cl)c2)[C@H](O)C[C@H]1Cl [Example 13, 7-[(1R,2S,3R,5R)-5-Chloro-2-(3,5-dichloro-phenoxymethyl)-3-hydroxy-cyclopentyl]-heptanoic acid methyl ester] | > 10 µM | > 10 µM | 1.66 µM |  |  |  |  |  | EC50 (hDP/Gqs5; Table 1, first part, triplicate, read-out: functional data (EC50) hDP): > 10 µM; EC50 (hDP/Gqs5; Table 1, second part, quantity not given, values match functional data (EC50) of first part, read-out: Other Receptors hDP): > 10 µM; EC50 (hEP3A/Gqi5; Table 1, first part, data represents a single experiment, read-out: functional data (EC50) hEP3A*): > 10 µM; EC50 (hEP3A/Gqi5; [8]): > 10 µM; EC50 (hEP1; Table 1, first part, triplicate, read-out: functional data (EC50) hEP1): > 10 µM; EC50 (hEP1; Table 1, second part, quantity not given, values match functional data (EC50) of first part, read-out: Other Receptors hEP1): > 10 µM |
| O=C(O)CCC/C=C\C[C@@H]1[C@@H](COc2cc(C(F)(F)F)cc(C(F)(F)F)c2)[C@H](O)C[C@H]1Cl [Example 15, (Z)-7-[(1R,2S,3R,5R)-2-(3,5-Bis-trifluoromethyl-phenoxymethyl)-5-chloro-3-hydroxy-cyclopentyl]-hept-5-enoic acid] |  |  |  |  | 0.9 | 52 h | 35% | 30% |  |
| O=C(O)CCC/C=C\C[C@@H]1[C@@H](COc2cccc3ccccc23)[C@H](O)C[C@H]1Cl [Example 19, (Z)-7-[(1R,2S,3R,5R)-5-Chloro-3-hydroxy-2-(naphthalen-1-yloxymethyl)-cyclopentyl]-hept-5-enoic acid] |  |  |  |  | 0.8 | 54 h | 41% | 31% |  |
| O=C(O)CCC/C=C\C[C@@H]1[C@@H](COc2cccc(C(F)(F)F)c2)[C@H](O)C[C@H]1Cl [Example 24, (Z)-7-[(1R,2S,3R,5R)-5-Chloro-3-hydroxy-2-(3-trifluoromethyl-phenoxymethyl)-cyclopentyl]-hept-5-enoic acid] |  |  |  |  | 0.5 | 6 h | 16% | 28% |  |
| Cc1cc(C)cc(OC[C@@H]2[C@@H](C/C=C\CCCC(=O)O)[C@H](Cl)C[C@H]2O)c1 [Example 36, (Z)-7-[(1R,2S,3R,5R)-5-Chloro-2-(3,5-dimethyl-phenoxymethyl)-3-hydroxy-cyclopentyl]-hept-5-enoic acid] |  |  |  |  | 1.2 | 28 h | 46% | 25% |  |
| O=C(O)CCC/C=C\C[C@@H]1[C@@H](COc2cc(C(F)(F)F)cc(Cl)c2F)[C@H](O)C[C@H]1Cl [Example 41, (Z)-7-[(1R,2S,3R,5R)-5-Chloro-2-(3-chloro-2-fluoro-5-trifluoromethyl-phenoxymethyl)-3-hydroxy-cyclopentyl]-hept-5-enoic acid] |  |  |  |  |  |  |  |  | EC50 (hEP3A/Gqi5; [8]): 1.64 µM |
